Holding throughout (assay type): cell-based
One experiment concerns the target T1, HTR1A (Homo sapiens, UniProt P08908).
T1 construct: expressed in transfected cells
T1 sequence (P08908 1-422): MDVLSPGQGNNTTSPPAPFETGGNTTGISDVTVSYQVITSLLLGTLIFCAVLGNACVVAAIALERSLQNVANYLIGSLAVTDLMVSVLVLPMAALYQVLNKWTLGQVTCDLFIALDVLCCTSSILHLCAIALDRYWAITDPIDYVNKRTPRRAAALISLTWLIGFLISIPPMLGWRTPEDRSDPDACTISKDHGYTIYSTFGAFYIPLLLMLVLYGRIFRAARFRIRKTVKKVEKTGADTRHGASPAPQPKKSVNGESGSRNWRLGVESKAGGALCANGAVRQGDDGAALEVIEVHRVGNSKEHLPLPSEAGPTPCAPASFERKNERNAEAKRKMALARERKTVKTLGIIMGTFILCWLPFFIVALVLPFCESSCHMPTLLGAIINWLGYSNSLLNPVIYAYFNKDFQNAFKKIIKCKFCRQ
In words: SAFETYScan GPCR cAMP, Agonist. The text has this:
(§1) Supplement jm1c02175_si_002.xlsx, sheet "SAFETYScan" | column: RC50 (uM); Max Response

Another experiment deals with T2, ADRB1 (Homo sapiens, UniProt P08588).
T2 construct: expressed in transfected cells
Briefly: SAFETYScan GPCR cAMP, Agonist.
Text: as §1

The target of another experiment is OPRM1 (Homo sapiens, UniProt P35372). In words: SAFETYScan GPCR cAMP, Agonist.
Text: as §1

A further experiment deals with T3, ADRA2A (Homo sapiens, UniProt P08913).
T3 construct: expressed in transfected cells
T3 sequence (P08913 1-465): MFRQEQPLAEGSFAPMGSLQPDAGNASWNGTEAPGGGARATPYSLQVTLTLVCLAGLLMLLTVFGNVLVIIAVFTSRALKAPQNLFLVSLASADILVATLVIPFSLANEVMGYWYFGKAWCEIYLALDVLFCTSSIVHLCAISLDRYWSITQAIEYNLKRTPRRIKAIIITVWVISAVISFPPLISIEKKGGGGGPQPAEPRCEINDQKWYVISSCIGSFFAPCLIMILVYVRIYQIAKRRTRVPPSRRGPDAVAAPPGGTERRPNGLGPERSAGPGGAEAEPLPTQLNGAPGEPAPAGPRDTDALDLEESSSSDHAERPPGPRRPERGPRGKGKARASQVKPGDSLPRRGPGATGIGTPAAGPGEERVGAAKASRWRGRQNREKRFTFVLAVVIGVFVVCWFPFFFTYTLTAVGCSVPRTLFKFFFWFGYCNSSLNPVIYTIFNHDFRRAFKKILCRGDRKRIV
In words: SAFETYScan GPCR cAMP, Agonist.
Text: as §1

A further experiment concerns the target T4, DRD2S (Homo sapiens, UniProt P14416).
T4 construct: expressed in transfected cells
Briefly: SAFETYScan GPCR cAMP, Agonist.
Text: as §1

A further experiment has as its target T5, HRH2 (Homo sapiens, UniProt P25021).
T5 construct: expressed in transfected cells
Briefly: SAFETYScan GPCR cAMP, Agonist.
Text: as §1

A further experiment has as its target T6, CHRM2 (Homo sapiens, UniProt P08172).
T6 construct: expressed in transfected cells
T6 sequence (P08172 1-466): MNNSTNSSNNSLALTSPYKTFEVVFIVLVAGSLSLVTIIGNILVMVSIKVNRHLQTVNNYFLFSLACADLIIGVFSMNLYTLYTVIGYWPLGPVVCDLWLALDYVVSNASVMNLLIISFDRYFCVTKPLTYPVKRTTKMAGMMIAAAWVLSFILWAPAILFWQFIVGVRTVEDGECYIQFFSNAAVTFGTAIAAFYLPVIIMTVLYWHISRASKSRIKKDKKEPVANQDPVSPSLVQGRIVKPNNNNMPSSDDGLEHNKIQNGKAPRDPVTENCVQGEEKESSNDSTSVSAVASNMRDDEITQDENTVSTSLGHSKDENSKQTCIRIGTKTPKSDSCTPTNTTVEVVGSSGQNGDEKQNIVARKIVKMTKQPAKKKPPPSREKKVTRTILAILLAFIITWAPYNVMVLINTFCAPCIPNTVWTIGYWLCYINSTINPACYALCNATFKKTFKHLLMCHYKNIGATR
Briefly: SAFETYScan GPCR cAMP, Agonist.
Text: as §1

A further experiment concerns the target T7, CNR1 (Homo sapiens, UniProt P21554).
T7 construct: expressed in transfected cells
Briefly: SAFETYScan GPCR cAMP, Agonist.
Text: as §1

The next experiment has as its target OPRK1 (Homo sapiens, UniProt P41145). Briefly: SAFETYScan GPCR cAMP, Agonist.
Text: as §1

A further experiment addresses T8, HTR1B (Homo sapiens, UniProt P28222).
T8 construct: expressed in transfected cells
Briefly: SAFETYScan GPCR cAMP, Agonist.
Text: as §1

A further experiment addresses T9, AR (Homo sapiens, UniProt P10275).
T9 sequence (P10275 1-920): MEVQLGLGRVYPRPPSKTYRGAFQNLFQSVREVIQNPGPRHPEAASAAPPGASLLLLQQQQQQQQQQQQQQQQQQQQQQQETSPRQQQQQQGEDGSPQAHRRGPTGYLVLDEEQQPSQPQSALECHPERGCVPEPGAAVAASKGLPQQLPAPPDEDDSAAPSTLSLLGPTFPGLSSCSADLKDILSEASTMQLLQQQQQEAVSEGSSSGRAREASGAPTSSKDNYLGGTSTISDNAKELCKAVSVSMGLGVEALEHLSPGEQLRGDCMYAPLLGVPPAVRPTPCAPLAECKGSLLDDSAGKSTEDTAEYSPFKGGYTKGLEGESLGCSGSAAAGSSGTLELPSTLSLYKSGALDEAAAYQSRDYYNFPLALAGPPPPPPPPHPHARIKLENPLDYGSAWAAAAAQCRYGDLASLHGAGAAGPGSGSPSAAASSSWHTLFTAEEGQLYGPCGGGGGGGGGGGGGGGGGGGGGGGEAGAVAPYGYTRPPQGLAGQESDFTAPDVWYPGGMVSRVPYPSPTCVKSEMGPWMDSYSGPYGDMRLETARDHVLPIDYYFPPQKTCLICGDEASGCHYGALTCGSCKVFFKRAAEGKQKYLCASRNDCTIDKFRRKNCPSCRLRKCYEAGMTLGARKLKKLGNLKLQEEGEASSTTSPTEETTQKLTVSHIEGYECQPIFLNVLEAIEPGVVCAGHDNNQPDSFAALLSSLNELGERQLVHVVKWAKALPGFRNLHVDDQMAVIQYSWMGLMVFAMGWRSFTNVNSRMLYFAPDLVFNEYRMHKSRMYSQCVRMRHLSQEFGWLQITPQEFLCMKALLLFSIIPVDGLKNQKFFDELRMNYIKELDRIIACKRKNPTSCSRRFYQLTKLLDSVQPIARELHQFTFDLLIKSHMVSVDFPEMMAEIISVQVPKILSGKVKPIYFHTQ
Briefly: SAFETYScan NHR Nuclear Translocation, Antagonist.
Text: as §1

Structures are written as SMILES. A value given as a limit tells only on which side of the number the result lay.

Among the data in PMC9234961 (Journal of Medicinal Chemistry, 2022) are Emax, EC50 and IC50 values, retold here.

T2 sequence (P08588 whole entry): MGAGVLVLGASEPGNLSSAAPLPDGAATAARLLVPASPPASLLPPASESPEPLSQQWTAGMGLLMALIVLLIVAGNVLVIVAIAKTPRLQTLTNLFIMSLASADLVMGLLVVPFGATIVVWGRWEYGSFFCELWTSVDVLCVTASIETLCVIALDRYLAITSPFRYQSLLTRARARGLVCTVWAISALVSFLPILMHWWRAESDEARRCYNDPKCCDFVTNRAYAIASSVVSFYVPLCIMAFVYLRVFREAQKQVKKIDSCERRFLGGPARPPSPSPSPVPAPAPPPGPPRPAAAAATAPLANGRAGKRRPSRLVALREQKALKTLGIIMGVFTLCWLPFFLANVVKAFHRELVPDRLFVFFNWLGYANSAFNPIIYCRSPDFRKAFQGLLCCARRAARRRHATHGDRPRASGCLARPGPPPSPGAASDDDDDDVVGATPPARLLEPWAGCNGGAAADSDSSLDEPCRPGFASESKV
T8 sequence (P28222 whole entry): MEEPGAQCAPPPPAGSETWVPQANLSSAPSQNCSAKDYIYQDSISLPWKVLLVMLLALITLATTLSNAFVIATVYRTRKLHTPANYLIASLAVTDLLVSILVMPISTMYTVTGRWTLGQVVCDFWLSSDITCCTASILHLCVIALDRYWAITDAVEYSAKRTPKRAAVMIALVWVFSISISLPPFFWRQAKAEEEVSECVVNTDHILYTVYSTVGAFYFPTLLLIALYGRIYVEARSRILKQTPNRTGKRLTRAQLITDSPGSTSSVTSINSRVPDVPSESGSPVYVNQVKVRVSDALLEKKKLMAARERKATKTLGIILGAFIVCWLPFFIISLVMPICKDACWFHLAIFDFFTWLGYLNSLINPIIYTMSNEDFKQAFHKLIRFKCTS
T5 sequence (P25021 whole entry): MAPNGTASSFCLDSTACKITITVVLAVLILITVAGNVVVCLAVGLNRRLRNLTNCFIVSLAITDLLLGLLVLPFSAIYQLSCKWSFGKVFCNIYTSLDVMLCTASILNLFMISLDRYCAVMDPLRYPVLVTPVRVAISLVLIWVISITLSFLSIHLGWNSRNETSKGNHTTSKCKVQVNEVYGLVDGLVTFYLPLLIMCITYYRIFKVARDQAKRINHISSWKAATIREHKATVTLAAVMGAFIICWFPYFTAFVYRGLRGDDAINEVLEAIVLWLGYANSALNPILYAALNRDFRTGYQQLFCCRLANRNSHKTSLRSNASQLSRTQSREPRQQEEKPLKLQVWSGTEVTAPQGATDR
OPRM1, sequence (P35372 whole entry, species assumed): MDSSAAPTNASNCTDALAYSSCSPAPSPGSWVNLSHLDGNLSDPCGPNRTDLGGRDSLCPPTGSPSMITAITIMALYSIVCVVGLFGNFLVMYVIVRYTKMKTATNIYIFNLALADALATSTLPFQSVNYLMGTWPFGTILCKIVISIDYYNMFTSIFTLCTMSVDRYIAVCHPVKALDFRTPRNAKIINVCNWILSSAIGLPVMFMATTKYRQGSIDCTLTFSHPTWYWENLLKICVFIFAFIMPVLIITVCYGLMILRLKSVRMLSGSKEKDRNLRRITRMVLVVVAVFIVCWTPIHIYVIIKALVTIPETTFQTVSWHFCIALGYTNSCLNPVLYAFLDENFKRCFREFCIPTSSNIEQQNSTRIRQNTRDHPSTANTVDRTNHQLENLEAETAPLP
OPRK1, sequence (P41145 whole entry, species assumed): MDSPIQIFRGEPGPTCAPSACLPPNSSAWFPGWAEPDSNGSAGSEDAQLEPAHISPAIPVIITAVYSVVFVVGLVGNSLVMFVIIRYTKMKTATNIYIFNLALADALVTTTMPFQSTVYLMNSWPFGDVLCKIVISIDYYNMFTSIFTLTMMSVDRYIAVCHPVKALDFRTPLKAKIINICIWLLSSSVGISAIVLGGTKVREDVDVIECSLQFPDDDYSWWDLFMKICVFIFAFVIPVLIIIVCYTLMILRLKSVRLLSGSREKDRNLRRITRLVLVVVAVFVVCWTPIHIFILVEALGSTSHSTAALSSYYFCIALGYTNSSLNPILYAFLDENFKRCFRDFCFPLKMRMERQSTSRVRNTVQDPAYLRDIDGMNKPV
T4 sequence (P14416 1-414 isoform P14416-2): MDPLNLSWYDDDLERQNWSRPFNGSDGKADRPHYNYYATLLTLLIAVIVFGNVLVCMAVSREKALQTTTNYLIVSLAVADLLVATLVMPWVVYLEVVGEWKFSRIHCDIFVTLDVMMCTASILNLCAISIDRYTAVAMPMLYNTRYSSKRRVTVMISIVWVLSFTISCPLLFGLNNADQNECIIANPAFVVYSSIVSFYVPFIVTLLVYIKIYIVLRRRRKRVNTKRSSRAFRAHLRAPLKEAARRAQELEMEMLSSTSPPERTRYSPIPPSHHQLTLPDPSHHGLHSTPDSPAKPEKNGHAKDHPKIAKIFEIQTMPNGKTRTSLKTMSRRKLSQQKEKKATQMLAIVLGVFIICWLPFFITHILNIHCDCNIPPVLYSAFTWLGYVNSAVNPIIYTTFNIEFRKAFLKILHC
T7 sequence (P21554 whole entry): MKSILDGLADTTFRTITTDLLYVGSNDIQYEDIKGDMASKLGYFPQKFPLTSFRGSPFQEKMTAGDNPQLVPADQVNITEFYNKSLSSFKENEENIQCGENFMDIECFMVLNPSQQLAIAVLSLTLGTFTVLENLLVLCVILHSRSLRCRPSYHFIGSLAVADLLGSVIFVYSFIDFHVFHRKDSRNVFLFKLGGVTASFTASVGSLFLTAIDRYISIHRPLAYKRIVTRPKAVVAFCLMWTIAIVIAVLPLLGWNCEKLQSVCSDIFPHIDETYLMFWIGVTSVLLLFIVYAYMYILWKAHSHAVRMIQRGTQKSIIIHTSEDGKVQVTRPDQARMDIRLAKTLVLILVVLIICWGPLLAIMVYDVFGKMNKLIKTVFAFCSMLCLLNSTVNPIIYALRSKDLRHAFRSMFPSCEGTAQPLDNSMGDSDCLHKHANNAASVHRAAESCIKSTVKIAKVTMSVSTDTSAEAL

As for `C[C@H]1C[C@@H](O)CN(c2ncc(Cl)c(Nc3ccc4c(c3)c3c(c(=O)n4C)OCC(F)(F)[C@H](C4CC4)N3)n2)C1` [12a CCT373566, (S)-10-((5-Chloro-2-((3R,5S)-3-hydroxy-5-methylpiperidin-1-yl)pyrimidin-4-yl)amino)-2-cyclopropyl-3,3-difluoro-7-methyl-1,2,3,4-tetrahydro-[1,4]oxazepino[2,3-c]quinolin-6(7H)-one], the Emax stood at 12.5% at HTR1A (read-out: Max Response); 0% on ADRB1 (read-out: Max Response); 28.9% at OPRM1 (read-out: Max Response); 33.6% at ADRA2A (read-out: Max Response); 1.64% at DRD2S (read-out: Max Response); 0% on HRH2 (read-out: Max Response). Moreover, the Emax is 15% on CHRM2 (read-out: Max Response); 18.9% at CNR1 (read-out: Max Response); 37.1% on OPRK1 (read-out: Max Response); 21.5% on HTR1B (read-out: Max Response); 0% on AR (read-out: Max Response). For the same compound, the EC50 on HTR1A (read-out: RC50 (EC50)), at ADRB1 (read-out: RC50 (EC50)), on OPRM1 (read-out: RC50 (EC50)), on ADRA2A (read-out: RC50 (EC50)), at DRD2S (read-out: RC50 (EC50)) and on HRH2 (read-out: RC50 (EC50)) was more than 10 µM each time. Besides, the EC50 on CHRM2 (read-out: RC50 (EC50)), at CNR1 (read-out: RC50 (EC50)), on OPRK1 (read-out: RC50 (EC50)) and at HTR1B (read-out: RC50 (EC50)) was more than 10 µM throughout. The IC50 at AR (read-out: RC50 (IC50)) was more than 10 µM.
